Experimental data reported in ChEMBL document CHEMBL1201862, “PubChem BioAssay data set” (2004).
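Protocol summary: plate cells (96-well), add compound at 5 concentrations, incubate 48 h, interpolate endpoints linearly. GI50: concentration for 50% inhibition of growth.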 Calls of active or inactive are those of the source. Rule as the data show it: active = GI50 up to about 1.1 µM and inactive = higher.

Tests used:
Test in all cases: NCI-60 cell line screen, 48 h
[1] = system: UACC-257
[2] = system: SK-OV-3
[3] = system: COLO 205
[4] = system: DU-145
[5] = system: U-251
[6] = system: KM12
[7] = system: SK-MEL-5
[8] = system: A549
[9] = system: RPMI-8226
[10] = system: SNB-75
[11] = system: MDA-MB-435
[12] = system: UO-31
[13] = system: HOP-62
[14] = system: EKVX
[15] = system: MDA-MB-231
[16] = system: NCI-H460
[17] = system: OVCAR-8
[18] = system: OVCAR-3
[19] = system: HOP-92
[20] = system: HCC 2998

Measured: GI50

O=CNc1ncn[nH]1
inactive: [1] > 100 µM | [2] > 100 µM | [3] > 100 µM | [4] > 100 µM | [5] > 100 µM | [6] > 100 µM | [7] > 100 µM | [8] > 100 µM | [9] > 100 µM | [10] > 100 µM | [11] > 100 µM | [12] > 100 µM | [13] > 100 µM | [14] > 100 µM | [15] > 100 µM | [16] > 100 µM | [17] > 100 µM | [18] > 100 µM

COc1cc(NCC2COc3c(ccc(OC)c3OC)C2=O)c([N+](=O)[O-])cc1OC (stereo not drawn)
inactive: [1] > 100 µM | [2] > 100 µM | [3] 54.7 µM | [4] > 100 µM | [5] > 100 µM | [6] > 100 µM | [7] 44.3 µM | [8] > 100 µM | [9] 12.3 µM | [10] 60.1 µM | [11] > 100 µM | [12] > 100 µM | [13] > 100 µM | [14] 95.1 µM | [15] 79.1 µM | [16] 35.2 µM | [17] > 100 µM | [18] > 100 µM

O=C1CC2C(=O)c3ccccc3CC2c2ccccc21 (stereo not drawn)
inactive: [1] 24.8 µM | [2] > 100 µM | [4] 50.5 µM | [19] 16.4 µM | [5] 57.4 µM | [6] 40.6 µM | [8] 36.3 µM | [9] 15.2 µM | [10] 6.49 µM | [11] 24.1 µM | [12] 12 µM | [13] > 100 µM | [14] 46.1 µM | [15] > 100 µM | [16] 33 µM | [17] 39.5 µM | [18] 26.7 µM

NC1=C(N2CCCCC2)C(=O)NC2=N/C(=C\c3ccco3)C(=O)N21
inactive: [1] > 100 µM | [2] > 100 µM | [3] > 100 µM | [4] > 100 µM | [19] > 100 µM | [5] > 100 µM | [6] > 100 µM | [7] > 100 µM | [8] > 100 µM | [9] > 100 µM | [10] > 100 µM | [11] > 100 µM | [12] > 100 µM | [14] > 100 µM | [15] > 100 µM | [17] > 100 µM

C=C1CCC2[C@](C)(CCC[C@]2(C)C(=O)O)[C@@H]1CCc1ccoc1 (stereo partly drawn)
inactive: [1] 29 µM | [2] > 100 µM | [20] 43.8 µM | [3] 17.4 µM | [4] 43.5 µM | [6] 18.7 µM | [7] 36.6 µM | [8] 34.5 µM | [9] 44.7 µM | [10] 67.3 µM | [11] 41.3 µM | [12] 36.5 µM | [13] 40.6 µM | [14] 34.3 µM | [15] 49.2 µM | [16] 33.9 µM | [18] 24 µM

CC(C)=C1C(=O)c2c(Cl)sc(Cl)c2C1=O
inactive: [1] 21.3 µM | [2] > 100 µM | [3] 20.9 µM | [4] 22.4 µM | [19] 22.6 µM | [5] 22.2 µM | [6] 16.5 µM | [7] 93.3 µM | [8] 26.1 µM | [10] 18.4 µM | [11] 18.6 µM | [12] 23.4 µM | [13] 42.4 µM | [14] 27.7 µM | [15] 27.6 µM | [16] > 100 µM | [17] 19.7 µM | [18] 29.3 µM

C=C[C@@H]1C[C@]2(C(=O)OC)Cc3nc4ccccc4nc3CC(C(=O)OC)=C2O1
inactive: [1] 76.7 µM | [2] > 100 µM | [3] 35.2 µM | [4] > 100 µM | [5] 92.7 µM | [6] 75.5 µM | [7] 78.9 µM | [8] > 100 µM | [9] 34 µM | [11] 47.8 µM | [13] > 100 µM | [14] > 100 µM | [15] 92.9 µM | [16] > 100 µM | [17] > 100 µM | [18] 23 µM

CCCCCCCCCCCCOC1C(COCCN2CCCCC2)OC2OC(C)(C)OC21 (stereo not drawn)
inactive: [1] 1.74 µM | [2] 4.08 µM | [20] 1.64 µM | [3] 1.66 µM | [4] 10 µM | [5] 2.02 µM | [6] 1.64 µM | [7] 1.58 µM | [8] 6.58 µM | [9] 1.52 µM | [11] 1.76 µM | [12] 1.59 µM | [13] 1.84 µM | [15] 1.91 µM | [16] 1.9 µM | [17] 1.8 µM | [18] 2.5 µM

CN(CO)c1nc(N(C)CO)nc(N(C)CO)n1 [TRIMELAMOL]
inactive: [2] 21.9 µM | [3] 8.53 µM | [4] 25.7 µM | [5] 19.5 µM | [6] 15.1 µM | [7] 6.95 µM | [8] 12.8 µM | [9] 3.98 µM | [10] 18.5 µM | [11] 20.1 µM | [12] 19 µM | [13] 20 µM | [14] 19.7 µM | [15] 21.5 µM | [17] 14.5 µM | [18] 27.7 µM
